{"source": "patent US20130005699A1", "about": "“METHODS AND PRODUCTS FOR TREATMENT OF DISEASES” (DMI ACQUISITION CORP., priority 2009, published 2013)", "key": {"[1]": {"test_system": "human retinal endothelial cells", "assay": "TER of retinal endothelial cell monolayers with danazol and steroid receptor antagonists (Example 6)", "settings": "0.1 μM of each additive, background subtracted, divided by 0.33 cm^2"}, "HUVECs": {"test_system": "HUVECs", "assay": "HUVEC tube formation on matrigel plugs", "format": "cell-based, human", "settings": "18 hours, 5% FCS", "description": "To investigate the formation of capillary-like structures by HUVECs, the Angiogenesis System Endothelial Cell Tube Formation Assay was purchased from BD Biosciences (San Jose, Calif.) and used according to the manufacturer's protocol. In brief, 100,000 HUVECs were seeded onto rehydrated matrigel plugs in 96 well tissue culture plates in the presence of 5% FCS to induce tube formation. […] After 18 hours the wells were photographed using a Kodak DCS Pro SLR/N digital camera (Rochester, N.Y.) mounted on an inverted microscope. Ethanol treated wells were included to determine if the vehicle had any effects on cell differentiation."}, "Akt": {"test_system": "Akt", "assay": "Akt phosphorylation (CASE ELISA kit for AKT S473) in retinal endothelial cells", "format": "cell-based, human", "settings": "2 hours", "description": "The cells were grown in a 25 cm^2 flask to near confluence in EGM-2 medium (Lonza, Walkersville, Md.) containing 2% fetal calf serum (Lonza). […] The plate was incubated at 37° C. with 5% CO2 for 24 hours. […] After this incubation, the cells were fixed immediately with 4% formaldehyde, refrigerated, and the extent of phosphorylation of Akt determined using the Akt Cellular Activation of Signaling ELISA Kit (CASE™ Kit for AKT 5473; SABiosciences, Frederick, Md.) following the manufacturer's protocols. The CASE™ Kit for AKT S473 quantifies the amount of activated (phosphorylated) Akt protein relative to total Akt protein in parallel assays using a conventional ELISA format with colorimetric detection. The Akt phosphorylation site is serine 473 and is recognized by one of the antibodies used in one of the two parallel assays to provide a measure of activated Akt protein. The other antibody used in the other parallel assay recognizes Akt to provide a measure of total Akt protein. Both primary antibodies are detected using a horseradish peroxidase-labeled secondary antibody. Addition of the manufacturer's Developing Solution for 10 minutes, followed by addition of the manufacturer's Stop Solution, produces the result which can be measured colorimetrically."}, "[2]": {"test_system": "human renal glomerular microvascular endothelial cells", "assay": "Actin stress fiber formation (Example 11), glomerular cells", "settings": "for F-actin staining pattern: danazol 1 μM alone"}, "RhoA": {"test_system": "RhoA", "assay": "Rho activation assay (GLISA) in retinal endothelial cells", "format": "cell-based, human", "description": "This experiment was performed using a commercially-available Rho activation assay (GLISA) purchased from Cytoskeleton, Denver, Colo., following the manufacturer's protocol. […] Test compounds diluted in HBSS were placed in the incubator to equilibrate before addition to the cells. Then, 150 μl of each test compound was added to the appropriate culture wells, and the plates were incubated in the incubator for an additional 15 minutes. Then, thrombin was added to appropriate wells. After 1 minute, the cells were washed one time with 1.5 ml phosphate buffered saline and were then lysed with 100 μl GLISA lysis buffer supplemented with protease inhibitors. The extracts were scraped, transferred to microcentrifuge tubes and transferred to ice to preserve the active form of RhoA. All extracts were then cleared of debris by spinning at 10,000 rpms for 2 minutes at 4° C. The supernatants were transferred to new tubes and placed back on ice. Aliquots of each extract were removed for the GLISA assay and for protein determinations. All protein concentrations were within 10%, and the extracts were used at the achieved concentrations (equates to 15 μg total protein per well). The GLISA assay was performed using the reagents supplied in the kit."}, "[3]": {"test_system": "human retinal endothelial cells", "assay": "TER of endothelial cell monolayers (Example 4), retinal", "format": "cell-based", "settings": "Danazol 1.0 μM, TER measurements/cm^2 of insert, blank subtracted", "description": "[…]. Assays were also performed in the same manner using passage 8 human brain endothelial cells and passage 8 human umbilical vein endothelial cells.\nAn initial TER measurement was taken for each insert using EVOM^2 voltohmmeter connected to an STX100 electrode (both from World Precision Instruments). Measurements were also taken at 24, 48, 72 and 144 hours. All data are presented as TER measurements/cm^2 of insert with TER of blank inserts subtracted."}, "[4]": {"test_system": "human renal glomerular microvascular endothelial cells", "assay": "ECIS resistance (Example 13), glomerular cells, medium without dexamethasone"}, "[5]": {"settings": "passage 8 cells, 0.1 U/ml Thrombin + 1.0 μM compound"}, "[6]": {"settings": "passage 12 cells, 0.1 U/ml Thrombin + 1.0 μM compound"}}, "data": [{"smiles": "C#C[C@]1(O)CC[C@H]2[C@@H]3CCC4=Cc5oncc5C[C@]4(C)[C@H]3CC[C@@]21C", "note": "[Danazol, 17α-pregna-2,4-dien-20-yno[2,3-d]-isoxazol-17β-ol]", "values": [{"measurement": "TER at 30 minutes", "setting": "[1]; None 216.22", "value": 255.26}, {"measurement": "TER at 120 minutes", "setting": "[1]; None 234.23", "value": 249.35}, {"measurement": "TER at 60 minutes", "setting": "[1]; None 249.25", "value": 267.27}, {"measurement": "TER at 24 Hours", "setting": "[1]; None 312.31", "value": 366.37}, {"measurement": "effect on tube formation", "setting": "HUVECs; 1 μM", "value": "no effect on tube formation"}, {"measurement": "effect on tube formation", "setting": "HUVECs; 10 μM", "value": "no effect on tube formation"}, {"measurement": "effect on tube formation", "setting": "HUVECs; 50 μM", "value": "effective inhibitor of tube formation"}, {"measurement": "PERCENT INCREASE IN AKT PHOSPHORYLATION VERSUS CONTROL", "setting": "Akt; 0.5 μM danazol", "value": 73.8, "unit": "%"}, {"measurement": "PERCENT INCREASE IN AKT PHOSPHORYLATION VERSUS CONTROL", "setting": "Akt; 1.0 μM danazol", "value": 66.7, "unit": "%"}, {"measurement": "PERCENT INCREASE IN AKT PHOSPHORYLATION VERSUS CONTROL", "setting": "Akt; 2.0 μM danazol", "value": 101.6, "unit": "%"}, {"measurement": "PERCENT INCREASE IN AKT PHOSPHORYLATION VERSUS CONTROL", "setting": "Akt; 5.0 μM danazol", "value": 40.5, "unit": "%"}, {"measurement": "PERCENT INCREASE IN AKT PHOSPHORYLATION VERSUS CONTROL", "setting": "Akt; 10.0 μM danazol", "value": 115.3, "unit": "%"}, {"measurement": "PERCENT INCREASE IN AKT PHOSPHORYLATION VERSUS CONTROL", "setting": "Akt; 20.0 μM danazol", "value": 161.3, "unit": "%"}, {"measurement": "PERCENT INCREASE IN AKT PHOSPHORYLATION VERSUS CONTROL", "setting": "Akt; 50.0 μM danazol", "value": 98.6, "unit": "%"}, {"measurement": "F-actin staining pattern", "setting": "[2]; 15 minutes", "value": "perinuclear staining"}, {"measurement": "F-actin staining pattern", "setting": "[2]; 3 hours", "value": "diffuse staining throughout the cells with ruffled edges on many of the cells"}, {"measurement": "F-actin staining pattern", "setting": "[2]; 24 hours", "value": "staining similar to untreated controls"}, {"measurement": "effect on S1P-induced cortical actin rings", "setting": "[2]; danazol 1 μM with S1P 1 μM", "value": "seemed to enhance the cortical rings"}, {"measurement": "effect on TNFα-induced stress fibers", "setting": "[2]; danazol 1 μM with TNFα 1 ng/ml, all times", "value": "decreased the stress fiber formation and the thickness of the fibers at all times"}, {"measurement": "Percent Inhibition vs. Untreated Control", "setting": "RhoA; passage 8 cells, 1.0 μM", "value": 73.89, "unit": "%"}, {"measurement": "Mean OD (active RhoA)", "setting": "RhoA; passage 8 cells, 1.0 μM, no thrombin, Untreated 0.102", "value": 0.027}, {"measurement": "Mean OD (active RhoA)", "setting": "RhoA; [5]", "value": 0.373}, {"measurement": "Percent Inhibition vs. Thrombin", "setting": "RhoA; [5]", "value": 41.02, "unit": "%"}, {"measurement": "Percent Inhibition vs. Untreated Control", "setting": "RhoA; passage 12 cells, 1.0 μM", "value": 6.82, "unit": "%"}, {"measurement": "Mean OD (active RhoA)", "setting": "RhoA; passage 12 cells, 1.0 μM, no thrombin, Untreated 0.455", "value": 0.424}, {"measurement": "Mean OD (active RhoA)", "setting": "RhoA; [6]", "value": 0.859}, {"measurement": "Percent Inhibition vs. Thrombin", "setting": "RhoA; [6]", "value": 27.57, "unit": "%"}, {"measurement": "TER at 0 Hours", "setting": "[3]; None 32.3", "value": 21.7}, {"measurement": "TER at 24 Hours", "setting": "[3]; None 96.0", "value": 132.3}, {"measurement": "TER at 48 Hours", "setting": "[3]; None 144.4", "value": 182.3}, {"measurement": "TER at 72 Hours", "setting": "[3]; None 148.0", "value": 217.7}, {"measurement": "TER at 144 Hours", "setting": "[3]; None 219.7", "value": 234.8}, {"measurement": "persistence of increased ECIS", "setting": "[4]; danazol 1 μM alone", "value": "about 90 hours"}, {"measurement": "start of increase of ECIS compared to untreated cells", "setting": "[4]; danazol 1 μM alone", "value": "about 3 hours"}, {"measurement": "enhancement of ECIS (TER) compared to dexamethasone", "setting": "[4]; danazol 1 μM versus dexamethasone 1 μM", "value": "not as great"}]}]}
